Literature values, collected in US20090004105A1, “Molecular imaging of matrix metalloproteinase expression using labeled chlorotoxin” (priority 2007, published 2009).

Columns and labels:
[1] = system: tumors of neuroectodermal origin; conditions: immunohistochemical studies, Lyons et al. 2002
[2] = molecular target: T1, MMP-2 presented on the surface of glioma cells (Homo sapiens, UniProt P08253); conditions: Deshane et al. 2003
T1 sequence (P08253 110-660): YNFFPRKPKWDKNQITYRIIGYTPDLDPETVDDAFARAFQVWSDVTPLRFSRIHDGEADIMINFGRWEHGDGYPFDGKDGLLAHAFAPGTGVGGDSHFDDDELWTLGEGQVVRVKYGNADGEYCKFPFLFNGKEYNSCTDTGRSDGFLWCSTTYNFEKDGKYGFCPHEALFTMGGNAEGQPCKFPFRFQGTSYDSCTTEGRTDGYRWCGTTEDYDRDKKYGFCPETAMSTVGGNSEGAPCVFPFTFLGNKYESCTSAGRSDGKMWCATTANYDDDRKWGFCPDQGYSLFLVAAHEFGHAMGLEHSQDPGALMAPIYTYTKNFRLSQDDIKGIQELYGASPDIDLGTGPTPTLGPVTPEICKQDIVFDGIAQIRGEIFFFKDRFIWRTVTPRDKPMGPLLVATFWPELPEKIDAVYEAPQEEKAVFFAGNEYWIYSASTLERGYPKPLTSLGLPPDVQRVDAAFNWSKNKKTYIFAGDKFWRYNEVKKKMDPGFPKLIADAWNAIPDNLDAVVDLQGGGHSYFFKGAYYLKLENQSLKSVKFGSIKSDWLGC

Chlorotoxin [Cltx]
binding to tumors of neuroectodermal origin [1]: specifically and selectively binds
MMP-2 inhibition [2]: specific MMP-2 inhibitor
binding affinity to MMP-2 on glioma cell surface [2]: high affinity
